# Assay results from article PMC5218480 (PLoS ONE, 2017).
# Test system: MV-4-11 cells
# Assay: Gene expression microarray analysis (Affymetrix PrimeView) and GSEA
# Format: cell-based, human
# Set-up: RFU PODN (11730768_x_at) / Fold change /veh PODN (11730768_x_at) / RFU LINC00158 (11744669_a_at) / Fold change /veh LINC00158 (11744669_a_at) / RFU DUSP10 (11751237_a_at) / Fold change /veh DUSP10 (11751237_a_at) / RFU ID3 (11757404_x_at) / Fold change /veh ID3 (11757404_x_at) / RFU PLEKHG5 (11737974_s_at) / Fold change /veh PLEKHG5 (11737974_s_at) / RFU LRRC4B (11730491_at) / Fold change /veh LRRC4B (11730491_at) / RFU GIMAP4 (11747438_a_at) / Fold change /veh GIMAP4 (11747438_a_at) / RFU KRT8 (11758183_x_at) / Fold change /veh KRT8 (11758183_x_at) / RFU CNN1 (11734310_a_at) / Fold change /veh CNN1 (11734310_a_at) / RFU VPS37D (11726825_at) / Fold change /veh VPS37D (11726825_at) / RFU C10orf10 (11716522_x_at) / Fold change /veh C10orf10 (11716522_x_at) / RFU KIR2DL2 /// KIR2DL4 /// KIR2DL5A /// KIR2DL5B /// KIR2DS1 /// KIR2DS2 /// KIR2DS3 /// KIR2DS4 /// KIR3DL3 /// KIR3DL3 /// KIR3DS1 (11738374_at) / Fold change /veh KIR2DL2 /// KIR2DL4 /// KIR2DL5A /// KIR2DL5B /// KIR2DS1 /// KIR2DS2 /// KIR2DS3 /// KIR2DS4 /// KIR3DL3 /// KIR3DL3 /// KIR3DS1 (11738374_at) / RFU C1QL1 (11718748_at) / Fold change /veh C1QL1 (11718748_at) / RFU TMPRSS4 (11747572_a_at) / Fold change /veh TMPRSS4 (11747572_a_at) / RFU HAMP (11756126_x_at) / Fold change /veh HAMP (11756126_x_at) / RFU RNFT2 (11725882_a_at) / Fold change /veh RNFT2 (11725882_a_at) / RFU NR4A2 (11747474_a_at) / Fold change /veh NR4A2 (11747474_a_at) / RFU ABCC12 (11746883_a_at) / Fold change /veh ABCC12 (11746883_a_at) / RFU TMEM136 (11760407_x_at) / Fold change /veh TMEM136 (11760407_x_at) / RFU CLDN22 /// WWC2 (11732394_at) / Fold change /veh CLDN22 /// WWC2 (11732394_at) / RFU HLA-DPB1 (11760878_x_at) / Fold change /veh HLA-DPB1 (11760878_x_at) / RFU SPINT1 (11716480_a_at) / Fold change /veh SPINT1 (11716480_a_at) / RFU GAP43 (11754022_s_at) / Fold change /veh GAP43 (11754022_s_at) / RFU A4GNT (11735810_at) / Fold change /veh A4GNT (11735810_at) / RFU PRB3 (11715151_x_at) / Fold change /veh PRB3 (11715151_x_at) / RFU TUBB4B (11761932_at) / Fold change /veh TUBB4B (11761932_at) / RFU CAPN14 (11732068_a_at) / Fold change /veh CAPN14 (11732068_a_at) / RFU TMCC2 (11721928_a_at) / Fold change /veh TMCC2 (11721928_a_at) / RFU IRGQ (11745062_a_at) / Fold change /veh IRGQ (11745062_a_at) / RFU FAM174B (11720279_a_at) / Fold change /veh FAM174B (11720279_a_at) / RFU TMPRSS4 (11748680_a_at) / Fold change /veh TMPRSS4 (11748680_a_at) / RFU FAM212B (11763350_a_at) / Fold change /veh FAM212B (11763350_a_at) / RFU PLEKHG5 (11743358_a_at) / Fold change /veh PLEKHG5 (11743358_a_at) / RFU ZSCAN30 (11745921_a_at) / Fold change /veh ZSCAN30 (11745921_a_at) / RFU CMKLR1 (11741424_a_at) / Fold change /veh CMKLR1 (11741424_a_at) / RFU LOC101060620 /// MAPK8IP1 (11723275_at) / Fold change /veh LOC101060620 /// MAPK8IP1 (11723275_at) / RFU SPTSSB (11747773_x_at) / Fold change /veh SPTSSB (11747773_x_at) / RFU PRSS12 (11739890_at) / Fold change /veh PRSS12 (11739890_at) / RFU BIN1 (11741810_x_at) / Fold change /veh BIN1 (11741810_x_at) / RFU WNT11 (11732464_a_at) / Fold change /veh WNT11 (11732464_a_at) / RFU C10orf10 (11716521_a_at) / Fold change /veh C10orf10 (11716521_a_at) / RFU C5orf56 (11738089_at) / Fold change /veh C5orf56 (11738089_at) / RFU CYB561 (11721691_x_at) / Fold change /veh CYB561 (11721691_x_at) / RFU ANKRD19P (11752326_a_at) / Fold change /veh ANKRD19P (11752326_a_at) / RFU OR2T12 /// OR2T33 /// OR2T8 (11738714_s_at) / Fold change /veh OR2T12 /// OR2T33 /// OR2T8 (11738714_s_at) / RFU VCAN (11748164_a_at) / Fold change /veh VCAN (11748164_a_at) / RFU JSRP1 (11732532_at) / Fold change /veh JSRP1 (11732532_at) / RFU KRTAP10-11 (11738290_x_at) / Fold change /veh KRTAP10-11 (11738290_x_at) / RFU MYO3A (11730013_a_at) / Fold change /veh MYO3A (11730013_a_at) / RFU EBF3 (11725865_a_at) / Fold change /veh EBF3 (11725865_a_at) / RFU CAMK2N1 (11719241_x_at) / Fold change /veh CAMK2N1 (11719241_x_at) / RFU C5orf56 (11738088_a_at) / Fold change /veh C5orf56 (11738088_a_at) / RFU OLFML3 (11715873_a_at) / Fold change /veh OLFML3 (11715873_a_at) / RFU LOC100653217 /// NTM (11731650_a_at) / Fold change /veh LOC100653217 /// NTM (11731650_a_at) / RFU MAPK11 (11762145_a_at) / Fold change /veh MAPK11 (11762145_a_at) / RFU FIZ1 (11724087_x_at) / Fold change /veh FIZ1 (11724087_x_at) / RFU OASL (11726364_x_at) / Fold change /veh OASL (11726364_x_at) / RFU SOX15 (11748057_x_at) / Fold change /veh SOX15 (11748057_x_at) / RFU CD79A (11719716_a_at) / Fold change /veh CD79A (11719716_a_at) / RFU HIST1H1D (11736915_at) / Fold change /veh HIST1H1D (11736915_at) / RFU CASKIN2 (11723855_a_at) / Fold change /veh CASKIN2 (11723855_a_at) / RFU LOC730098 (11760151_x_at) / Fold change /veh LOC730098 (11760151_x_at) / RFU OR4N2 (11742367_at) / Fold change /veh OR4N2 (11742367_at) / RFU PRRT2 (11749266_a_at) / Fold change /veh PRRT2 (11749266_a_at) / RFU SNX32 (11753110_a_at) / Fold change /veh SNX32 (11753110_a_at) / RFU CDHR5 (11726645_a_at) / Fold change /veh CDHR5 (11726645_a_at) / RFU RCAN1 (11760418_a_at) / Fold change /veh RCAN1 (11760418_a_at) / RFU FAM167A (11723789_a_at) / Fold change /veh FAM167A (11723789_a_at) / RFU FAM26E (11764081_at) / Fold change /veh FAM26E (11764081_at) / RFU ISYNA1 (11749810_s_at) / Fold change /veh ISYNA1 (11749810_s_at) / RFU ACY1 (11761880_at) / Fold change /veh ACY1 (11761880_at) / RFU 11764098_at / Fold change /veh 11764098_at / RFU SAMD14 (11745864_x_at) / Fold change /veh SAMD14 (11745864_x_at) / RFU NPB (11741838_a_at) / Fold change /veh NPB (11741838_a_at) / RFU TMPRSS6 (11731388_a_at) / Fold change /veh TMPRSS6 (11731388_a_at) / RFU KRTAP10-2 (11738614_at) / Fold change /veh KRTAP10-2 (11738614_at) / RFU ARHGAP8 /// PRR5-ARHGAP8 (11727945_x_at) / Fold change /veh ARHGAP8 /// PRR5-ARHGAP8 (11727945_x_at) / RFU KRTAP5-7 /// NADSYN1 (11734609_at) / Fold change /veh KRTAP5-7 /// NADSYN1 (11734609_at) / RFU RASL12 (11751679_a_at) / Fold change /veh RASL12 (11751679_a_at) / RFU CDKN2B (11736163_a_at) / Fold change /veh CDKN2B (11736163_a_at) / RFU PRF1 (11729649_at) / Fold change /veh PRF1 (11729649_at) / RFU, ZNF638 /// ZNF638-IT1 / Fold change vs veh, ZNF638 /// ZNF638-IT1 / RFU, PANK3 / Fold change vs veh, PANK3 / RFU, SH3YL1 / Fold change vs veh, SH3YL1 / RFU, ZEB2 / Fold change vs veh, ZEB2 / RFU, NRIP1 / Fold change vs veh, NRIP1 / RFU, PTTG1IP / Fold change vs veh, PTTG1IP / RFU, CAPN2 / Fold change vs veh, CAPN2 / RFU, MED14 / Fold change vs veh, MED14 / RFU, SNORA58 / Fold change vs veh, SNORA58 / RFU, C1orf63 / Fold change vs veh, C1orf63 / RFU, LRRFIP1 / Fold change vs veh, LRRFIP1 / RFU, NDUFAF7 / Fold change vs veh, NDUFAF7 / RFU, SLC12A2 / Fold change vs veh, SLC12A2 / RFU, IBTK / Fold change vs veh, IBTK / RFU, ESF1 / Fold change vs veh, ESF1 / Fold change vs veh, TMEM50B / RFU, TAOK1 / Fold change vs veh, TAOK1 / RFU, ACBD3 / Fold change vs veh, ACBD3 / RFU, TMA16 / Fold change vs veh, TMA16 / RFU, RWDD3 / Fold change vs veh, RWDD3 / RFU, BCAT1 / Fold change vs veh, BCAT1 / RFU, EDEM3 / Fold change vs veh, EDEM3 / RFU, TMEM33 / Fold change vs veh, TMEM33 / RFU, WDR75 / Fold change vs veh, WDR75 / RFU, AHCTF1 / Fold change vs veh, AHCTF1 / RFU, TFRC / Fold change vs veh, TFRC / RFU, ZDHHC17 / Fold change vs veh, ZDHHC17 / RFU, NOM1 / Fold change vs veh, NOM1 / RFU, ARL8B / Fold change vs veh, ARL8B / RFU, ZBTB11 / Fold change vs veh, ZBTB11 / RFU, TAMM41 / Fold change vs veh, TAMM41 / RFU, KIAA1704 /// LOC100996395 / Fold change vs veh, KIAA1704 /// LOC100996395 / RFU, ING1 / Fold change vs veh, ING1 / RFU, TRMT61B / Fold change vs veh, TRMT61B / RFU, FUBP3 / Fold change vs veh, FUBP3 / RFU, TP53 / Fold change vs veh, TP53 / RFU, TNKS2 / Fold change vs veh, TNKS2 / RFU, ZFP14 / Fold change vs veh, ZFP14 / RFU, ACTR2 / Fold change vs veh, ACTR2 / RFU, PPP3R1 / Fold change vs veh, PPP3R1 / RFU, PIK3R1 / Fold change vs veh, PIK3R1 / RFU, HNRNPA1 / Fold change vs veh, HNRNPA1 / RFU, RNF170 / Fold change vs veh, RNF170 / RFU, ZNF28 / Fold change vs veh, ZNF28 / RFU, RNGTT / Fold change vs veh, RNGTT / RFU, OGT / Fold change vs veh, OGT / RFU, BRD1 / Fold change vs veh, BRD1 / RFU, MARS / Fold change vs veh, MARS / RFU, ZNF655 / Fold change vs veh, ZNF655 / RFU, FAHD1 / Fold change vs veh, FAHD1 / RFU, BDP1 / Fold change vs veh, BDP1 / RFU, LRRCC1 / Fold change vs veh, LRRCC1 / RFU, ARID1A / Fold change vs veh, ARID1A / RFU, ZNF146 / Fold change vs veh, ZNF146 / RFU, ZNF330 / Fold change vs veh, ZNF330 / RFU, GPN3 / Fold change vs veh, GPN3 / RFU, C9orf123 / Fold change vs veh, C9orf123 / RFU, N4BP2L2 / Fold change vs veh, N4BP2L2 / RFU, ARFIP1 / Fold change vs veh, ARFIP1 / RFU, FAM179B / Fold change vs veh, FAM179B / RFU, BCL10 / Fold change vs veh, BCL10 / RFU, UHRF1BP1L / Fold change vs veh, UHRF1BP1L / RFU, BET1 / Fold change vs veh, BET1 / RFU, CNOT2 / Fold change vs veh, CNOT2 / RFU, ZNF268 / Fold change vs veh, ZNF268 / Fold change vs veh, ZNF507 / RFU, DGCR2 / Fold change vs veh, DGCR2 / RFU, WDSUB1 / Fold change vs veh, WDSUB1 / Fold change vs veh, HSP90B1 /// MIR3652 / RFU, ADSS / Fold change vs veh, ADSS / RFU, GK / Fold change vs veh, GK / RFU, ZNF148 / Fold change vs veh, ZNF148 / RFU, TAF9 / Fold change vs veh, TAF9 / RFU, SLC1A5 / Fold change vs veh, SLC1A5 / RFU, SLMO2 / Fold change vs veh, SLMO2 / RFU, ABCC4 / Fold change vs veh, ABCC4 / RFU, LOC101060439 /// RAP1B / Fold change vs veh, LOC101060439 /// RAP1B / RFU, RFX7 / Fold change vs veh, RFX7 / RFU, GTPBP10 / Fold change vs veh, GTPBP10 / RFU, CNEP1R1 / Fold change vs veh, CNEP1R1 / RFU, BIVM-ERCC5 /// ERCC5 / Fold change vs veh, BIVM-ERCC5 /// ERCC5 / RFU, ILF3 / Fold change vs veh, ILF3 / RFU 11762660_at / Fold change /veh 11762660_at / RFU VCAN (11757783_s_at) / Fold change /veh VCAN (11757783_s_at) / RFU DDX43 (11728927_at) / Fold change /veh DDX43 (11728927_at) / RFU KRT8 (11758188_x_at) / Fold change /veh KRT8 (11758188_x_at) / RFU NKD1 (11759106_at) / Fold change /veh NKD1 (11759106_at) / RFU SRD5A1 (11742802_a_at) / Fold change /veh SRD5A1 (11742802_a_at) / RFU TPSAB1 /// TPSB2 (11721975_s_at) / Fold change /veh TPSAB1 /// TPSB2 (11721975_s_at) / RFU GSTM3 (11746129_a_at) / Fold change /veh GSTM3 (11746129_a_at) / RFU IL23R (11737362_x_at) / Fold change /veh IL23R (11737362_x_at) / RFU TMEM51 (11727254_a_at) / Fold change /veh TMEM51 (11727254_a_at) / RFU PIWIL2 (11732686_x_at) / Fold change /veh PIWIL2 (11732686_x_at) / RFU ORM1 (11744905_x_at) / Fold change /veh ORM1 (11744905_x_at) / RFU CCDC152 (11743942_at) / Fold change /veh CCDC152 (11743942_at) / RFU ECM1 (11717891_a_at) / Fold change /veh ECM1 (11717891_a_at) / RFU IL23R (11748794_a_at) / Fold change /veh IL23R (11748794_a_at) / RFU TNFAIP8L3 (11732012_x_at) / Fold change /veh TNFAIP8L3 (11732012_x_at) / RFU MBOAT4 (11741988_at) / Fold change /veh MBOAT4 (11741988_at) / RFU 11764193_at / Fold change /veh 11764193_at / RFU TMEM53 (11763286_at) / Fold change /veh TMEM53 (11763286_at) / RFU MAGEB2 (11727129_at) / Fold change /veh MAGEB2 (11727129_at) / RFU TMEM200A (11744735_a_at) / Fold change /veh TMEM200A (11744735_a_at) / RFU CCDC152 (11751479_a_at) / Fold change /veh CCDC152 (11751479_a_at) / RFU FAM211A (11726209_a_at) / Fold change /veh FAM211A (11726209_a_at) / RFU RGS16 (11746705_a_at) / Fold change /veh RGS16 (11746705_a_at) / RFU VCAN (11755009_s_at) / Fold change /veh VCAN (11755009_s_at) / RFU RHOB (11743442_s_at) / Fold change /veh RHOB (11743442_s_at) / RFU RGS16 (11720943_a_at) / Fold change /veh RGS16 (11720943_a_at) / RFU RGS16 (11720944_at) / Fold change /veh RGS16 (11720944_at) / RFU, VPS4B / Fold change vs veh, VPS4B / RFU, CREB1 / Fold change vs veh, CREB1 / RFU, DNAJC13 / Fold change vs veh, DNAJC13 / RFU, GNAQ / Fold change vs veh, GNAQ / RFU, CDK5R1 / Fold change vs veh, CDK5R1 / RFU, ZRANB3 / Fold change vs veh, ZRANB3 / RFU, CUL4A / Fold change vs veh, CUL4A / RFU, CCNY / Fold change vs veh, CCNY / RFU, UFL1 / Fold change vs veh, UFL1 / RFU, COG3 / Fold change vs veh, COG3 / RFU, DIAPH2 / Fold change vs veh, DIAPH2 / RFU, SKA2 / Fold change vs veh, SKA2 / RFU, AFF3 / Fold change vs veh, AFF3 / RFU, LMF1 / Fold change vs veh, LMF1 / RFU, IPO11 / Fold change vs veh, IPO11 / RFU, DFFB / Fold change vs veh, DFFB / RFU, FOXP1 / Fold change vs veh, FOXP1 / RFU, CARD8 / Fold change vs veh, CARD8 / RFU, STRN3 / Fold change vs veh, STRN3 / RFU, ADK / Fold change vs veh, ADK / RFU, RASSF2 / Fold change vs veh, RASSF2 / RFU, WIPF1 / Fold change vs veh, WIPF1 / RFU, LARP1B / Fold change vs veh, LARP1B / RFU, RASA1 / Fold change vs veh, RASA1 / RFU, RB1 / Fold change vs veh, RB1 / RFU, PPFIA1 / Fold change vs veh, PPFIA1 / RFU, MAT2A / Fold change vs veh, MAT2A / RFU, CCT5 / Fold change vs veh, CCT5 / RFU, WDR92 / Fold change vs veh, WDR92 / RFU, CUX1 / Fold change vs veh, CUX1 / RFU, TTC7A / Fold change vs veh, TTC7A / RFU, TMEM135 / Fold change vs veh, TMEM135 / RFU, DEPTOR / Fold change vs veh, DEPTOR / RFU, CPM / Fold change vs veh, CPM / RFU, DNAJB6 / Fold change vs veh, DNAJB6 / RFU, CACNA2D3 / Fold change vs veh, CACNA2D3 / RFU, DTX4 / Fold change vs veh, DTX4 / RFU, TFCP2 / Fold change vs veh, TFCP2 / RFU, GMCL1 /// GMCL1P1 / Fold change vs veh, GMCL1 /// GMCL1P1 / RFU, AEBP2 / Fold change vs veh, AEBP2 / RFU, SNHG1 /// SNORD22 /// SNORD25 /// SNORD26 /// SNORD27 /// SNORD28 /// SNORD29 /// SNORD31 / Fold change vs veh, SNHG1 /// SNORD22 /// SNORD25 /// SNORD26 /// SNORD27 /// SNORD28 /// SNORD29 /// SNORD31 / Fold change (Aza/veh), C12orf56 (ProbeSet 11735607_a_at) / Fold change (ACY-1035/veh), C12orf56 (ProbeSet 11735607_a_at) / Fold change (Aza/veh), FGFR1OP (ProbeSet 11751329_s_at) / Fold change (ACY-1035/veh), FGFR1OP (ProbeSet 11751329_s_at) / Fold change (Aza/veh), VPS36 (ProbeSet 11739960_a_at) / Fold change (ACY-1035/veh), VPS36 (ProbeSet 11739960_a_at) / RFU SYPL1 (11715823_x_at) / Fold change /veh SYPL1 (11715823_x_at) / RFU IGFBP7 (11715501_s_at) / Fold change /veh IGFBP7 (11715501_s_at) / RFU REEP3 (11722064_at) / Fold change /veh REEP3 (11722064_at) / RFU IGLL1 (11728026_x_at) / Fold change /veh IGLL1 (11728026_x_at): dose or concentration left out as unconfirmed
# Details: MV-4-11 cells, 48 hours
smiles,measurement,value
Nc1ncn([C@@H]2O[C@H](CO)[C@@H](O)[C@H]2O)c(=O)n1 [azacitidine],Fold change /veh HLA-DPB1 (11760878_x_at),0.86
